Where two headings read alike, the source gives them in different places.
Experiments:
[1] = biological target: T1, pyrene-conjugated actin (Oryctolagus cuniculus, UniProt P68135); test: Pyrene actin polymerization assay; type: biochemical; conditions: for IC50: mean ± SEM, triplicate; for inhibition at 0.1 µM: read-out: Actin polymerization inhibition (%) 100 nM; for inhibition at 1 µM: read-out: Actin polymerization inhibition (%) 1 μM
T1 construct: purchased Cytoskeleton, Denver, Colo
Experimental: An actin polymerization kit was used to assess the direct actin-binding activity of each analogue at two concentrations: 100 nM and 1 μM. This kit is based on the enhanced fluorescence of pyrene-conjugated actin that occurs during polymerization. When pyrene-G-actin (monomer) forms pyrene-F-actin, fluorescence is enhanced. The enhanced fluorescence is used to follow polymerization over time. Table 2 lists activities as the percentage of actin polymerization inhibition, compared to the negative vehicle control (DMSO), along with calculated IC50.
Pyrene-Actin Polymerization Assays. Actin polymerization assays were performed in accordance with the manufacturer's instructions (Cytoskeleton, Denver, Colo.). Briefly, […] final concentration of monomeric actin (1:10 pyrene labeled) was incubated on ice for 10 min with one of various concentrations of one of the latrunculin derivatives. Samples were then equilibrated 10 min in an ELISA plate reader (BioTek, VT), after which polymerization was induced by adding KCl, MgCl2, and ATP. Compounds 1-14 were tested at 0.1, 0.5, 1.0, and 10 μM. The IC50 for each compound was calculated using GraphPad Prism 5.0.
Pyrene-actin polymerization assays. Actin polymerization inhibitory activity is assessed using the Cytoskeleton Actin Polymerization kit (Cytoskeleton, Denver, Colo.). Briefly, […] (final concentration) of monomeric actin (1:10 pyrene labeled) is incubated on ice for 10 min with one of various concentrations of the test latrunculin compound. Samples are equilibrated 10 min in an ELISA plate reader (BioTek, VT), after which polymerization is induced by adding KCl, MgCl2, and ATP. Compounds are tested at 0.1, 0.5, 1.0, and 10 μM. The IC50 for each compound is calculated using GraphPad Prism 5.0.

[2] = test system: MCF7; test: MTT proliferation assay, MCF7; type: cell-based, human; conditions: Homo sapiens, read-out: IC50 (μM) MCF7
Source text: (§1) The antiproliferative and anti-invasive activities of compounds 1-14 were quantified using MTT and cell invasion assay kits, respectively. Latrunculin A (compound 1) was used as a positive control in all biological assays, because it is known to be an actin polymerization inhibitor, with cytotoxic, antiproliferative, and anti-invasive activities. The 3-[4,5-dimethylthiazol-2-yl]-2,5-diphenyl tetrazolium bromide (MTT) assay selectively detects living cells in a quantitative, colorimetric fashion, based on a living cell's ability to reduce MTT to an insoluble, purple formazan dye. The MTT assay is routinely used to assess cytotoxicity and proliferation inhibition activities. The antiproliferative activities of compounds 1-14 were measured against two human mammary gland adenocarcinoma cell lines, MCF7 and MDA-MB-231, and against human prostate cancer cells PC-3 at five different doses (0.1, 0.5, 1, 10, and 50 μM). While many of the semisynthetic latrunculins had similar activity levels, some had greater activity than compound 1. […] Although the MDA-MB-231 cells were more resistant than MCF7 against most latrunculin derivatives tested, compound 14 had potent activity against both cell lines.
(§2) MTT Proliferation Assay. The growth of MCF7, MDA-MB-231, and PC-3 cancer cell lines was measured using an MTT kit (TACS™, TREVIGEN®, Inc.). Exponentially growing cells were plated in a 96-well plate at a density of 8×10^3 cells per well, and allowed to attach for 24 h. Complete growth medium was then replaced with 100 μL of RPMI serum-free medium containing various concentrations (50, 10, 1, 0.5, 0.1 μM) of the particular test compound. Culture continued at 37° C. under 5% CO2. After 72 h of culture, the cells were treated with MTT solution (10 μL/well) at 37° C. for 4 h. The color reaction was stopped by adding solubilization/stop solution (100 μL/well). Incubation continued at 37° C. continued to completely dissolve the formazan dye product. Absorbance of the samples was determined at 570 nm with an ELISA plate reader (BioTek, VT). The number of cells per well was calculated against a standard curve that had been prepared by plating various concentrations of cells, as determined by hemocytometer, at the start of each experiment. IC50 for each compound was calculated using a nonlinear regression curve fit of log concentration versus the number of cells/well, using GraphPad Prism 5.0 (GraphPad Software, La Jolla, Calif.).

[3] = test system: PC-3; test: MTT proliferation assay, PC-3; type: cell-based, human; conditions: Homo sapiens, read-out: IC50 (μM) PC-3
Source text: as §1, §2

[4] = test system: MDA-MB-231; test: MTT proliferation assay, MDA-MB-231; type: cell-based, human; conditions: Homo sapiens, read-out: IC50 (μM) MDA-MB-231
Source text: as §1, §2

[5] = test system: MDA-MB-231 cells; test: Cultrex BME cell invasion assay; type: cell-based, human; conditions: for anti-invasive activity compared with compound 1: 1 and 0.5 μM doses
Experimental: The anti-invasive activities of compounds 1-14 were measured using a 96 well basement membrane extract (BME) cell invasion assay kit against the highly metastatic MDA-MB-231 cells. This assay employs a simplified Boyden Chamber with a polyethylene terephthalate membrane (8 μm pore size). Cell invasion was quantified using calcein-acetomethylester (calcein-AM). Cells internalize calcein-AM; intracellular esterases then cleave the acetomethylester moiety to generate free calcein. Free calcein fluoresces brightly. This fluorescence may be used to quantify the number of cells that have invaded across the BME. To correlate the anti-invasive activities of the latrunculin A derivatives with their actin-disrupting activities, compounds 1-14 were each tested at non-toxic concentrations. […] Accordingly, all compounds were tested at 0.1, 0.5, and 1.0 μM. Compound 3 killed 17% of MDA-MB-231 cells at 1.0 μM, while the same dose of compound 3 inhibited 95% of MDA-MB-231 cells' invasion. […] The anti-invasive activities of compounds 1-14 are attributed primarily to the inhibition of actin polymerization, not to cell death per se.
Cultrex® Cell Invasion Assay. Anti-invasive activities were measured using Trevigen's Cultrex® Cell Invasion Assay as described in K. Tamilarasan et al., BMC Cell Biol. 2006, 7, 17-30; and P. Borghesani et al., Development. 2002, 6, 1435-1442. About 50 μL of basement membrane extract (BME) coat was added to each well. After incubation for 4 h at 37° C. under 5% CO2, 50,000 MDA-MB-231 cells in 50 μL of serum free RPMI medium were added to each well in the top chamber, along with the test compound at one of several concentrations (0.1, 0.5, 1 μM). About 150 μL of RPMI medium was added to the lower chamber in 10% FBS and penicillin/streptomycin, using fibronectin ([…]) and N-formyl-met-leu-phe (10 nM) as chemoattractants. Cells were allowed to migrate to the lower chamber at 37° C. under 5% CO2. After 24 h, the top and bottom chambers were aspirated and washed with the washing buffer that had been supplied with the kit. About 100 μL of Cell Dissociation Solution/Calcein-AM solution was added to the bottom chamber, and the cells were incubated at 37° C. under CO2 for 1 h. Briefly, the cells internalize calcein-AM, and then the intracellular esterases cleave the AM moiety to generate free calcein. […] The number of cells that had invaded through the BME coat was calculated using a standard curve.

[6] = 100 nM, compared to vehicle control (DMSO)
[7] = 1 μM, compared to vehicle control (DMSO)
[8] = MDA-MB-231, MTT, 72 h, mean ± SEM

| Structure (SMILES) | IC50 [1] [nM] | inhibition at 0.1 µM [1] [%] | inhibition at 1 µM [1] [%] | IC50 ([2]; MCF7, 72 h) [µM] | IC50 ([3]; PC-3, 72 h) [µM] | IC50 ([4]; MDA-MB-231, 72 h) [µM] | inhibition at 0.1 µM [1, 6] [%] | inhibition at 1 µM [1, 7] [%] | IC50 ([2]; MCF7, MTT, 72 h, mean ± SEM) [µM] | IC50 ([3]; PC-3, MTT, 72 h) [µM] | IC50 [4, 8] [µM] | anti-invasive activity compared with compound 1 [5] | fold more active against cell invasion than latrunculin A (compound 1) ([5]; 0.5 μM) [fold] |
| --- | --- | --- | --- | --- | --- | --- | --- | --- | --- | --- | --- | --- | --- |
| C/C1=C/C(=O)O[C@@H]2C[C@@H](CC[C@H](C)/C=C\C=C\CC1)O[C@@](O)([C@@H]1CSC(=O)N1)C2 [Compound 1, Latrunculin A, reference compound] | 284 ± 72 | 30 | 73 | 0.48 ± 0.04 | 3.9 | 4.19 ± 1.49 | – | – | – | – | – | – | – |
| CO[C@]1([C@@H]2CSC(=O)N2)C[C@H]2C[C@@H](CC[C@H](C)/C=C\C=C\CC/C(C)=C\C(=O)O2)O1 [Compound 2, 17-O-Methyllatrunculin A] | 9230 ± 825 | – | – | – | – | – | 6 | 21 | 10.2 ± 1.72 | 22.3 | 23.4 ± 0.85 | – | – |
| C/C1=C/C(=O)O[C@@H]2C[C@@H](CC[C@H](C)/C=C\C=C\CC1)O[C@@](OC(=O)c1ccccc1)([C@@H]1CSC(=O)N1)C2 [Compound 4, 17-O-Benzoyllatrunculin A] | 466 ± 51 | – | – | – | – | – | 23 | 67 | 0.52 ± 0.14 | 6.44 | 5.05 ± 0.36 | equipotent to compound 1 | – |
| CO[C@]1([C@@H]2CSC(=O)N2C)C[C@H]2C[C@@H](CC[C@H](C)/C=C\C=C\CC/C(C)=C\C(=O)O2)O1 [Compound 5, 17-O-Methyl-N-methyllatrunculin A] | > 10000 | – | – | – | – | – | 11 | 19 | 13.1 ± 3.69 | 19.4 | 19.9 ± 3.27 | – | – |
| CCN1C(=O)SC[C@H]1[C@@]1(OC)C[C@H]2C[C@@H](CC[C@H](C)/C=C\C=C\CC/C(C)=C\C(=O)O2)O1 [Compound 6, 17-O-Methyl-N-ethyllatrunculin A] | > 10000 | – | – | – | – | – | 0 | 18 | 20.6 ± 2.77 | 29.3 | > 50 | – | – |
| CO[C@]1([C@@H]2CSC(=O)N2C2CCCC2)C[C@H]2C[C@@H](CC[C@H](C)/C=C\C=C\CC/C(C)=C\C(=O)O2)O1 [Compound 7, 17-O-Methyl-N-cyclopentanelatrunculin A] | 1050 ± 271 | – | – | – | – | – | 20 | 49 | 5.3 ± 1.32 | 7.24 | 5.07 ± 0.72 | – | – |
| CO[C@]1([C@@H]2CSC(=O)N2CCCO)C[C@H]2C[C@@H](CC[C@H](C)/C=C\C=C\CC/C(C)=C\C(=O)O2)O1 [Compound 8, 17-O-Methyl-N-(3′-hydroxypropyl)latrunculin A] | 8550 ± 574 | – | – | – | – | – | 0 | 21 | 19.2 ± 3.91 | 34.2 | > 50 | – | – |
| CO[C@]1([C@@H]2CSC(=O)N2Cc2ccccc2)C[C@H]2C[C@@H](CC[C@H](C)/C=C\C=C\CC/C(C)=C\C(=O)O2)O1 [Compound 9, 17-O-Methyl-N-benzyllatrunculin A] | 333 ± 76 | – | – | – | – | – | 33 | 67 | 0.78 ± 0.24 | 8.3 | 6.82 ± 1.41 | – | – |
| CO[C@]1([C@@H]2CSC(=O)N2C(=O)c2ccccc2)C[C@H]2C[C@@H](CC[C@H](C)/C=C\C=C\CC/C(C)=C\C(=O)O2)O1 [Compound 10, 17-O-Methyl-N-benzoyllatrunculin A] | 834 ± 109 | – | – | – | – | – | 17 | 53 | 0.55 ± 0.091 | 4.7 | 4.48 ± 1.79 | – | – |
| CCN1C(=O)SC[C@H]1[C@@]1(O)C[C@H]2C[C@@H](CC[C@H](C)/C=C\C=C\CC/C(C)=C\C(=O)O2)O1 [Compound 12, N-Ethyllatrunculin A] | 283 ± 51 | – | – | – | – | – | 32 | 70 | 0.95 | 5.72 | 7.19 | equipotent to compound 1 | – |
| C/C1=C/C(=O)O[C@@H]2C[C@@H](CC[C@H](C)/C=C\C=C\CC1)O[C@@](O)([C@@H]1CSC(=O)N1Cc1ccccc1)C2 [Compound 13, N-Benzyllatrunculin A] | 445 ± 79 | – | – | – | – | – | 24 | 64 | 0.63 | 3.8 | 2.72 | – | 3.1 |

— US20110136880A1, “Latrunculin-Based Macrolides and Their Uses” (priority 2009, published 2011)
